Laboratory results reported in patent US11154589B2, “Antimicrobial composition combinations comprising star shaped peptide polymers” (The University of Melbourne, priority 2016, dated 2021).
In brackets after ≈: the same amount, converted by molar mass. Like-named read-outs stand apart in the source and are kept apart here. Marks after values point to notes of the source that are not given here.

Key:
[1] = system: CMDR A. baumannii (FADDI-AB156); assay: Antibiogram of CMDR A. baumannii (MIC); type: cell-based, Acinetobacter baumannii; conditions: CMDR A. baumannii (FADDI-AB156); for MIC: read-out: MIC; for Susceptibility: interpreted by CLSI resistant breakpoints
[2] = system: Klebsiella pneumoniae (K. pneumoniae, ATCC 13883); assay: S16-antibiotic co-administration, synergy by Bliss Independence and HSA models; type: cell-based; conditions: for MBC in combination: S16 and antibiotic co-administered, each at MBC50, 3 h; for Antimicrobial activity on co-administration with S16 compared to compounds alone (log change in CFU/mL): all compounds at MBC50, t=3 h; for Synergistic? (Yes/No) Bliss* / Synergistic? (Yes/No) HAS*: antibiotic in combination with S16, 3 h; for Synergistic? (Yes/No) Bliss*: Bliss Independence model; for Synergistic? (Yes/No) HAS*: Highest Single Agent model
Protocol: (§1) The 96-well plate was then incubated at 37° C. for 1.5 or 3 h. For each well, microbial solution was diluted with saline (0.9% NaCl solution) using an appropriate dilution factor and placed on a LB agar plate (LB broth containing 15 g/L Oxoid Blood Agar Base No. 2). For E. coli, K. pneumoniae, and A. Baumannii (ATCC 19606 and FADDI-AB156), the agar plates were incubated overnight at room temperature, and then at 37° C. with aeration for 2 h. For P. Aeruginosa (ATCC 47085 and FADDI-PA067), the agar plates were incubated at 37° C. with aeration. The number of colony-forming units (CFU) was counted and expressed as CFU/mL. Positive controls consisting of cells without any treatment were used. […] A minimum of two independent experiments (biological replicates) of the assay were conducted and three technical replicates were used in each experiment. Data is expressed as mean±standard deviation (SD) and analysed using student's t-test.
(§2) The Bliss Independence and HSA models were used to calculate drug synergism. […] Biotechnol. 31, 160-165 (2013). With the Bliss Independence model, synergism was calculated using the formula, BICAB=A+B−AB (1), where A and B are the effects of the two drugs in isolation and BICAB is the combined effect of the two drugs as predicted by the Bliss Independence model. […] In the HSA model, if CAB is greater than the greater of A and B, CAB>max(A, B), synergy is observed. The quantitative effect of the compounds when administered alone (i.e., A and B) or in combination (i.e., CAB) was defined as the fractional reduction of the population, R=1−CFUt/CFU0, where CFUt is the CFU/mL measured after treatment, and CFU0 is the CFU/mL measured before treatment.

[3] = system: Pseudomonas aeruginosa (P. aeruginosa, ATCC 47085); assay: as above; type: cell-based; conditions: for Antimicrobial activity on co-administration with S16 compared to compounds alone (log change in CFU/mL): all compounds at MBC50; for Fold reduction of MBC: MBCeff with S16 versus MBC alone; for MBC in combination: S16 and antibiotic co-administered, each at MBC50; for Synergistic? (Yes/No) Bliss* / Synergistic? (Yes/No) HAS*: antibiotic in combination with S16; for Synergistic? (Yes/No) Bliss*: Bliss Independence model; for Synergistic? (Yes/No) HAS*: Highest Single Agent model
Protocol: as §1, §2

[4] = system: Escherichia coli (E. coli, ATCC 25922); assay: as above; type: cell-based; conditions: for MBC in combination: S16 and antibiotic co-administered, each at MBC50, 3 h; for Antimicrobial activity on co-administration with S16 compared to compounds alone (log change in CFU/mL): all compounds at MBC50, t=3 h; for Synergistic? (Yes/No) Bliss* / Synergistic? (Yes/No) HAS*: antibiotic in combination with S16, 3 h; for Synergistic? (Yes/No) Bliss*: Bliss Independence model; for Synergistic? (Yes/No) HAS*: Highest Single Agent model
Protocol: as §1, §2

[5] = system: Acinetobacter baumannii (A. baumannii, ATCC 19606); assay: as above; type: cell-based; conditions: for Interaction with S16 as evaluated by the Bliss Independence and HSA models (in words) / Antimicrobial activity on co-administration with S16 compared to compounds alone (log change in CFU/mL): A. baumannii wild-type; for Interaction with S16 as evaluated by the Bliss Independence and HSA models (in words): 3 h time point; for Antimicrobial activity on co-administration with S16 compared to compounds alone (log change in CFU/mL): all compounds at MBC50, t=3 h; for MBC in combination / Synergistic? (Yes/No) Bliss* / Synergistic? (Yes/No) HAS*: A. baumannii, 3 h; for MBC in combination: S16 and antibiotic co-administered, each at MBC50; for Synergistic? (Yes/No) Bliss* / Synergistic? (Yes/No) HAS*: antibiotic in combination with S16; for Synergistic? (Yes/No) Bliss*: Bliss Independence model; for Synergistic? (Yes/No) HAS*: Highest Single Agent model
Protocol: as §1, §2

[6] = system: CMDR P. aeruginosa (FADDI-PA067); assay: MBC determination (in vitro antimicrobial experiment, CFU counting); type: cell-based, Pseudomonas aeruginosa; conditions: compound alone
Protocol: (§3) Freeze-dried cultures of Escherichia coli (E. coli, ATCC 25922), Klebsiella pneumoniae (K. pneumoniae, ATCC 13883), Pseudomonas aeruginosa (P. aeruginosa, ATCC 47085), Acinetobacter baumannii (A. baumannii, ATCC 19606), colistin and multidrug-resistant (CMDR) A. baumannii (FADDI-AB156), and CMDR P. aeruginosa (FADDI-PA067) were grown aerobically and maintained by passage at ambient temperature on horse blood agar (10% v/v defibrinated horse blood, 4.4% w/v Oxoid Blood Agar Base No. 2). Overnight cultures were made from transferring a colony (ca. half a loop) from the agar plates to culture tubes containing sterilized Luria-Bertani broth (LB, 1% w/v Bacto™ Tryptone, 1% w/v NaCl, 0.5% w/v Oxoid Yeast Extract) (20 mL). Bacterial cultures were incubated overnight at 37° C. with aeration and without agitation, with the exception of the two P. aeruginosa strains (ATCC 47085 and FADDI-PA067) which were cultured at 37° C. with aeration and agitation (150 rpm). On the next day, for E. coli, K. pneumonia, P. aeruginosa (ATCC 47085), and CMDR P. aeruginosa (FADDI-PA067), small aliquots (i.e., 0.5-3 mL) were taken from the culture tubes, further diluted with LB (20 mL), and incubated for 3-4 h at 37° C. with aeration before use. All bacterial cultures were cultured without agitation, with the exception of P. aeruginosa ATCC 47085 and FADDI-PA067 which were cultured with shaking at 150 rpm. For A. baumannii, an aliquot of 0.5 mL was taken from the overnight culture tube, further diluted with LB (200 mL), and incubated overnight at 37° C. with aeration before use.
as §1

[7] = system: CMDR A. baumannii (FADDI-AB156); assay: S16-antibiotic co-administration, synergy by Bliss Independence and HSA models; type: cell-based, Acinetobacter baumannii
Protocol: as §1, §2

[8] = system: Klebsiella pneumoniae (K. pneumoniae, ATCC 13883); assay: MBC determination (in vitro antimicrobial experiment, CFU counting); type: cell-based
Protocol: as §3, §1

[9] = system: Pseudomonas aeruginosa (P. aeruginosa, ATCC 47085); assay: as above; type: cell-based; conditions: compound alone, P. aeruginosa (wild-type)
Protocol: as §3, §1

[10] = system: Escherichia coli (E. coli, ATCC 25922); assay: as above; type: cell-based
Protocol: as §3, §1

[11] = system: Acinetobacter baumannii (A. baumannii, ATCC 19606); assay: as above; type: cell-based; conditions: compound alone, A. baumannii (wild-type)
Protocol: as §3, §1

[12] = system: CMDR A. baumannii (FADDI-AB156); assay: as above; type: cell-based, Acinetobacter baumannii; conditions: compound alone
Protocol: as §3, §1

[13] = system: CMDR P. aeruginosa (FADDI-PA067); assay: Antibiogram of CMDR P. aeruginosa; type: cell-based, Pseudomonas aeruginosa; conditions: interpreted by CLSI resistant breakpoints

| Compound | Susceptibility [1] | MBC in combination [2] | Antimicrobial activity on co-administration with S16 compared to compounds alone (log change in CFU/mL) [2] | Synergistic? (Yes/No) Bliss* [2] | Synergistic? (Yes/No) HAS* [2] | Antimicrobial activity on co-administration with S16 compared to compounds alone (log change in CFU/mL) ([3]; P. aeruginosa wild-type, t=3 h) | MBC in combination ([3]; P. aeruginosa, 3 h) | Synergistic? (Yes/No) Bliss* ([3]; P. aeruginosa, 3 h) | Synergistic? (Yes/No) HAS* ([3]; P. aeruginosa, 3 h) | MBC in combination [4] | Antimicrobial activity on co-administration with S16 compared to compounds alone (log change in CFU/mL) [4] | Synergistic? (Yes/No) Bliss* [4] | Synergistic? (Yes/No) HAS* [4] | Interaction with S16 as evaluated by the Bliss Independence and HSA models (in words) [5] | Antimicrobial activity on co-administration with S16 compared to compounds alone (log change in CFU/mL) [5] | MBC in combination [5] | Synergistic? (Yes/No) Bliss* [5] | Synergistic? (Yes/No) HAS* [5] | MBC [6] | MBC [9] | other results |
| --- | --- | --- | --- | --- | --- | --- | --- | --- | --- | --- | --- | --- | --- | --- | --- | --- | --- | --- | --- | --- | --- |
| CC1(C)S[C@@H]2[C@H](NC(=O)[C@H](N)c3ccccc3)C(=O)N2[C@H]1C(=O)O [Amp, ampicillin] | Resistant | 327.6 µM | significantly enhanced antimicrobial activity | Yes | Yes | significantly enhanced antimicrobial activity | 2930.7 µM | Yes | Yes | 5.7 µM | significantly enhanced antimicrobial activity | No | No | additive | significantly enhanced antimicrobial activity | 1465.4 µM | No | No | <1.4 µM | >5860.0 µM | MIC ([1]; Acinetobacter baumannii): > 2930 µM; Interaction with S16 as evaluated by the Bliss Independence and HSA models (in words) ([2]; 3 h time point): synergistic; Interaction with S16 as evaluated by the Bliss Independence and HSA models (in words) ([3]; P. aeruginosa wild-type, 3 h time point): synergistic; Fold reduction of MBC ([3]; P. aeruginosa): > 16 fold; Fold reduction of MBC ([3]; P. aeruginosa, listed as ampicillin): more than 16 fold; reduction (printed in parentheses beside fold reduction of MBC) ([3]; P. aeruginosa, antibiotic co-administered with S16): 99.9%; MBC in combination, MBCeff ([3]; P. aeruginosa, co-administered S16 (at MBC50) and antibiotic, antibiotic concentration giving at least 2-log reduction in CFU/mL, 3 h): 366.3^a μM; Interaction with S16 as evaluated by the Bliss Independence and HSA models (in words) ([4]; 3 h time point): additive; MBC ([6]; Pseudomonas aeruginosa): < 1.4 µM; Interaction with S16 as evaluated by the Bliss Independence and HSA models (in words) ([7]; 3 h time point): synergistic; MBC in combination ([7]; S16 and antibiotic co-administered, each at MBC50, 3 h): 2930.7 µM; Antimicrobial activity on co-administration with S16 compared to compounds alone (log change in CFU/mL) ([7]; all compounds at MBC50, t=3 h): Enhanced antimicrobial activity; Synergistic? (Yes/No) Bliss* ([7]; antibiotic in combination with S16, 3 h, Bliss Independence model): Yes; Synergistic? (Yes/No) HAS* ([7]; antibiotic in combination with S16, 3 h, Highest Single Agent model): Yes; MBC ([8]; Klebsiella pneumoniae, ATCC13883, compound alone): 655 µM (≈ 229 µg/mL); MBC ([9]; Pseudomonas aeruginosa, ATCC47085): > 5860 µM; MBC ([10]; Escherichia coli, ATCC25922, compound alone): 9.4 µM (≈ 3.28 µg/mL); MBC ([11]; Acinetobacter baumannii, ATCC19606): > 2930 µM; MBC ([12]; Acinetobacter baumannii): > 2930 µM |
| gentamicin | Resistant | 1.1 µM | enhanced efficacy | Yes | Yes | did not result in any significant change in activity | 1.2 µM | No | No | 2.2 µM | enhanced efficacy | Yes | Yes | non-synergistic | did not result in any significant change in activity | 6.0 µM | Yes | No | <1.1 µM | 2.4 µM | MIC [1]: >1104.5 µM; Antimicrobial activity on co-administration with S16 compared to compounds alone (log change in CFU/mL) ([3]; P. aeruginosa, t=1.5 h): enhancement in efficacy; MBC ([8]; compound alone): 2.2 µM; MBC ([10]; compound alone): 3.7 µM; MBC [11]: 12.1 µM; Susceptibility [13]: Resistant; MBC [12]: >1104.5 µM |
